Reference: ChEMBL document CHEMBL1201862, “PubChem BioAssay data set” (2004)
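96-well plates; 48 h exposure; 5 concentrations. Endpoints by linear interpolation between flanking doses. Not reached: highest tested concentration assigned. At the GI50, growth is halved.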 Calls of active or inactive are those of the source. Cut-off read from the data, not from the text of the source: active = GI50 up to about 1.1 µM and inactive = higher.

Tests used:
Test in all cases: DTP human tumour cell line panel, 48 h
OVCAR-8 = system: OVCAR-8
CAKI-1 = system: CAKI-1
A498 = system: A498
UO-31 = system: UO-31
HOP-62 = system: HOP-62
KM12 = system: KM12
MDA-MB-231 = system: MDA-MB-231
LOX IMVI = system: LOX IMVI
ACHN = system: ACHN
IGROV-1 = system: IGROV-1
HOP-92 = system: HOP-92
HCC 2998 = system: HCC 2998
SK-OV-3 = system: SK-OV-3
NCI/ADR-RES = system: NCI/ADR-RES
SF-295 = system: SF-295
OVCAR-3 = system: OVCAR-3
HL-60 = system: HL-60
SR = system: SR
SK-MEL-28 = system: SK-MEL-28
MDA-MB-435 = system: MDA-MB-435

Row | Compound | GI50 (OVCAR-8) | GI50 (CAKI-1) | GI50 (A498) | GI50 (UO-31) | GI50 (HOP-62) | GI50 (KM12) | GI50 (MDA-MB-231) | GI50 (LOX IMVI) | GI50 (ACHN) | GI50 (IGROV-1) | GI50 (HOP-92) | GI50 (HCC 2998) | GI50 (SK-OV-3) | GI50 (NCI/ADR-RES) | GI50 (SF-295) | GI50 (OVCAR-3) | GI50 (HL-60) | GI50 (SR) | GI50 (SK-MEL-28) | GI50 (MDA-MB-435)
1 | CCCCCC/C=C1\CCC(CN(C)C)C1=O (stereo not given) | 4.44 µM (inactive) | 4.75 µM (inactive) | 17 µM (inactive) | 15.4 µM (inactive) | 19.6 µM (inactive) | 2.48 µM (inactive) | 6.43 µM (inactive) | 1.89 µM (inactive) | 9.64 µM (inactive) | 10.5 µM (inactive) | 11.4 µM (inactive) | 5.74 µM (inactive) | 20.3 µM (inactive) | 7.38 µM (inactive) | 12.7 µM (inactive) | 6.61 µM (inactive) | 1.52 µM (inactive) | 1.85 µM (inactive) | 4.14 µM (inactive) | 8.04 µM (inactive)
2 | COc1cc2cc(C(=O)N3CC(CCl)c4ccc([N+](C)(C)Cc5ccccc5[N+](=O)[O-])cc43)[nH]c2c(OC)c1OC (stereo not given) | 3.44 µM (inactive) | 1.01 µM (active) | 0.398 µM (active) | 1.33 µM (inactive) | 2.94 µM (inactive) | 2.24 µM (inactive) | 3.94 µM (inactive) | 2.31 µM (inactive) | 0.348 µM (active) | 1.82 µM (inactive) | 2.21 µM (inactive) | 1.27 µM (inactive) | 4.51 µM (inactive) | 1.76 µM (inactive) | 1.47 µM (inactive) | 2.94 µM (inactive) | 2.77 µM (inactive) | 0.213 µM (active) | 2.46 µM (inactive) | 1.82 µM (inactive)
3 | COc1ccc2nc3ccc(OC)cc3c([S+]([O-])Cc3ccc([N+](=O)[O-])cc3)c2c1 (stereo not given) | 3.39 µM (inactive) | 15.3 µM (inactive) | 17.3 µM (inactive) | 6.44 µM (inactive) | 16.1 µM (inactive) | 18.4 µM (inactive) | 15.7 µM (inactive) | 5.16 µM (inactive) | 5.52 µM (inactive) | 5.3 µM (inactive) | 3.13 µM (inactive) | 17.5 µM (inactive) | 21.1 µM (inactive) | 21.2 µM (inactive) | 20.6 µM (inactive) | 5.47 µM (inactive) | 1.75 µM (inactive) | 8.18 µM (inactive) | 5.97 µM (inactive) | 8.07 µM (inactive)
4 | COC(=O)C(/C(=N/N)C(=O)Nc1ccc(C)c(C)c1)c1nc2ccc(Cl)cc2nc1O (stereo not given) | > 100 µM (inactive) | > 100 µM (inactive) | > 100 µM (inactive) | 28.4 µM (inactive) | > 100 µM (inactive) | > 100 µM (inactive) | > 100 µM (inactive) | > 100 µM (inactive) | 40.3 µM (inactive) | 49.3 µM (inactive) | > 100 µM (inactive) | > 100 µM (inactive) | > 100 µM (inactive) | > 100 µM (inactive) | > 100 µM (inactive) | > 100 µM (inactive) | > 100 µM (inactive) | > 100 µM (inactive) | > 100 µM (inactive) | > 100 µM (inactive)
5 | C=CCOn1c(C=C)nc2c(C)cccc21 | 2.85 µM (inactive) | 2.06 µM (inactive) | 5.66 µM (inactive) | 2.43 µM (inactive) | 3.77 µM (inactive) | 3.41 µM (inactive) | 3.83 µM (inactive) | 2.9 µM (inactive) | 2.62 µM (inactive) | 7.35 µM (inactive) | 8.32 µM (inactive) | 6.08 µM (inactive) | 2.4 µM (inactive) | 3.12 µM (inactive) | 5.58 µM (inactive) | 2.48 µM (inactive) | 1.98 µM (inactive) | 2.46 µM (inactive) | 10.6 µM (inactive) | 1.63 µM (inactive)
6 | [O-][n+]1ccc(NO)c2ccccc21 | 0.561 µM (active) | 1.16 µM (inactive) | 0.673 µM (active) | 1.75 µM (inactive) | 1.79 µM (inactive) | 0.984 µM (active) | 1.32 µM (inactive) | 1.45 µM (inactive) | 0.796 µM (active) | 1.65 µM (inactive) | 2.07 µM (inactive) | 0.253 µM (active) | 0.518 µM (active) | 1.54 µM (inactive) | 0.374 µM (active) | 2.3 µM (inactive) | 0.923 µM (active) | 0.106 µM (active) | 1.3 µM (inactive) | 4.6 µM (inactive)
7 | COc1ccc(CCc2cc(OC)c(OC)c(OC)c2)cc1 | 0.1 µM (active) | 0.0206 µM (active) | < 0.0207 µM (active) | 1.95 µM (inactive) | 0.0196 µM (active) | 0.0118 µM (active) | 0.296 µM (active) | 0.0372 µM (active) | 0.824 µM (active) | 0.0612 µM (active) | 0.805 µM (active) | 0.0568 µM (active) | 0.0236 µM (active) | 0.0622 µM (active) | 0.0178 µM (active) | 0.02 µM (active) | 0.014 µM (active) | < 0.01 µM (active) | 0.183 µM (active) | < 0.01 µM (active)
